Converted amounts (≈) assume the structure as drawn. Where two headings read alike, the source gives them in different places.
Columns and labels:
A. baumannii A14 [1] = experiment: Preliminary MBC without and with sub-inhibitory polymyxin B (Example 4); format: cell-based, Acinetobacter baumannii; conditions: A. baumannii A14; +0.06 μg/ml polymyxin B; preliminary MBC; 1st experiment
A. baumannii A401 [2] = experiment: as above; format: cell-based, Acinetobacter baumannii; conditions: Acinetobacter baumannii
A. baumannii A14 [3] = experiment: MIC without and with sub-inhibitory polymyxin B (Example 4); format: cell-based, Acinetobacter baumannii; conditions: 1st experiment
[4] = test system: Acinetobacter sp. (H064200250); experiment: as above; format: cell-based
A. baumannii NCTC 13301 [5] = experiment: as above; format: cell-based, Acinetobacter baumannii
A. baumannii ATCC 19606 = experiment: as above; format: cell-based, Acinetobacter baumannii; conditions: A. baumannii ATCC 19606
A. baumannii A329 = experiment: as above; format: cell-based, Acinetobacter baumannii; conditions: A. baumannii A329; +0.06 μg/ml PB; 2nd experiment
A. baumannii A472 [6] = experiment: Preliminary MBC without and with sub-inhibitory polymyxin B (Example 4); format: cell-based, Acinetobacter baumannii; conditions: Acinetobacter baumannii, preliminary MBC
A. baumannii A489 = experiment: MIC without and with sub-inhibitory polymyxin B (Example 4); format: cell-based, Acinetobacter baumannii; conditions: for MIC without PB/MIC + PB: A. baumannii A489; for MIC: Acinetobacter baumannii
A. baumannii A472 [7] = experiment: as above; format: cell-based, Acinetobacter baumannii; conditions: for MIC: Acinetobacter baumannii
A. baumannii A390 [8] = experiment: Preliminary MBC without and with sub-inhibitory polymyxin B (Example 4); format: cell-based, Acinetobacter baumannii; conditions: Acinetobacter baumannii, A390, A. baumannii A390, +0.06 μg/ml PB, 2nd experiment
In short: (§1)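 Bactericidal endpoint scored visually on plates incubated at 37° C (18-20 hours): the lowest concentration where growth fell about 90% versus the positive control, generally leaving one colony or none.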

A. baumannii A14 [9] = experiment: as above; format: cell-based, Acinetobacter baumannii; conditions: A. baumannii A14, +0.06 μg/ml PB, 2nd experiment
In short: as §1

A. baumannii A473 [10] = experiment: as above; format: cell-based, Acinetobacter baumannii; conditions: A. baumannii A473, +0.06 μg/ml PB, 2nd experiment
In short: as §1

A. baumannii NCTC 13301 [11] = experiment: as above; format: cell-based, Acinetobacter baumannii; conditions: Acinetobacter baumannii
In short: as §1

A. baumannii NCTC 13301 [12] = experiment: MIC without and with sub-inhibitory polymyxin B (Example 4); format: cell-based, Acinetobacter baumannii; conditions: +[…] PB, 2nd experiment
A. baumannii A14 [13] = experiment: as above; format: cell-based, Acinetobacter baumannii; conditions: A. baumannii A14; +0.06 μg/ml PB; 2nd experiment
A. baumannii A401 [14] = experiment: as above; format: cell-based, Acinetobacter baumannii; conditions: A baumannii A 401; ratio, PB 0.06 μg/ml; 1st experiment
A. baumannii A387 [15] = experiment: as above; format: cell-based, Acinetobacter baumannii; conditions: A. baumannii A387
A. baumannii A390 [16] = experiment: as above; format: cell-based, Acinetobacter baumannii; conditions: +0.06 μg/ml PB, 2nd experiment
A. baumannii A387 [17] = experiment: Preliminary MBC without and with sub-inhibitory polymyxin B (Example 4); format: cell-based, Acinetobacter baumannii; conditions: A. baumannii A387, +0.06 μg/ml PB, 2nd experiment
[18] = test system: strains of A. baumannii and one strain of Acinetobacter sp.; experiment: MIC with sub-inhibitory concentrations (0.25x MIC) of polymyxin B, panel of Acinetobacter strains (Example 4); format: cell-based
A. baumannii J2 = experiment: MIC without and with sub-inhibitory polymyxin B (Example 4); format: cell-based, Acinetobacter baumannii; conditions: for MIC without PB/MIC + PB: A. baumannii J2; for MIC: Acinetobacter baumannii
A. baumannii A473 [19] = experiment: as above; format: cell-based, Acinetobacter baumannii; conditions: A. baumannii A473; +0.06 μg/ml PB; 2nd experiment
[20] = ratio, PB 0.06 μg/ml, 1st experiment

For `COc1c(N2C[C@@H]3CCCN[C@@H]3C2)c(F)cc2c(=O)c(C(=O)O)cn(C3CC3)c12` [Moxifloxacin], which “MBC +0.06 μg/ml PB” value (A. baumannii A14 [1]) is on record?
The value was 32 mg/L.

What about the MBC (A. baumannii A401 [2]; A401, A baumannii A 401, +0.06 μg/ml PB, 2nd experiment) of the same molecule?
Its MBC is 8 mg/L (≈ 19.9 µM).

And the MBC (A. baumannii A401 [2]; A401, read-out: MBC +0.06 μg/ml PB, A baumannii A 401, +0.06 μg/ml polymyxin B, 1st experiment)?
The MBC was 8 mg/L.

And the “MIC +0.06 μg/ml PB” value (A. baumannii A14 [3]; +0.06 μg/ml polymyxin B)?
Its value is 32 mg/L.

And the “MIC without PB/MIC + PB” value (A. baumannii A14 [3]; ratio, PB 0.06 μg/ml)?
Its value is 1.

What about the “MIC without PB/MIC + PB” value ([4]; Acinetobacter spp. H064200250 (OXA51), +[…] PB, 2nd experiment) of the same molecule?
The value was 1.

What about the “MIC without PB/MIC + PB” value ([4]; Acinetobacter spp. H064200250, ratio, PB […], 1st experiment) of the same molecule?
Its value is 1.

And the “MIC without PB/MIC + PB” value (A. baumannii NCTC 13301 [5]; A. baumannii NCTC 13301, ratio, PB […], 1st experiment)?
Its value is 1.

And the MIC (A. baumannii NCTC 13301 [5]; Acinetobacter baumannii, NCTC13301, read-out: MIC +[…] PB)?
Its MIC is 128 mg/L (≈ 319 µM).

And the “MIC without PB/MIC + PB” value (A. baumannii ATCC 19606; +0.06 μg/ml PB, 2nd experiment)?
The value was 2.

What about the “MIC without PB/MIC + PB” value (A. baumannii ATCC 19606; [20]) of the same molecule?
Its value is 1.

And the “MIC without PB/MIC + PB” value (A. baumannii A329)?
The value was 1.

What about the MBC (A. baumannii A472 [6]; A472, A. baumannii A472, +[…] PB, 2nd experiment) of the same molecule?
Its MBC is 4 mg/L (≈ 9.96 µM).

What about the MBC (A. baumannii A472 [6]; A472, read-out: MBC +[…] PB, A. baumannii A472, +[…] polymyxin B, 1st experiment) of the same molecule?
Its MBC is 4 mg/L (≈ 9.96 µM).

And the “MIC without PB/MIC + PB” value (A. baumannii A489; +[…] PB, 2nd experiment)?
Its value is 4.

And the “MIC without PB/MIC + PB” value (A. baumannii A489; ratio, PB […], 1st experiment)?
The value was 4.

What about the MIC (A. baumannii A489; A489, A. baumannii A489, +[…] PB, 2nd experiment, read-out: MIC) of the same molecule?
The MIC was 4 mg/L (≈ 9.96 µM).

What about the MIC (A. baumannii A489; A489, read-out: MIC +[…] PB, A. baumannii A489, +[…] polymyxin B, 1st experiment) of the same molecule?
Its MIC is 4 mg/L (≈ 9.96 µM).

What about the “MIC without PB/MIC + PB” value (A. baumannii A472 [7]; A. baumannii A472, ratio, PB […], 1st experiment) of the same molecule?
The value was 0.5.

What about the MIC (A. baumannii A472 [7]; A472, A. baumannii A472, +[…] PB, 2nd experiment, read-out: MIC) of the same molecule?
The MIC was 4 mg/L (≈ 9.96 µM).

What about the MIC (A. baumannii A472 [7]; A472, read-out: MIC +[…] PB, A. baumannii A472, +[…] polymyxin B, 1st experiment) of the same molecule?
The MIC was 32 mg/L (≈ 79.7 µM).

What about the MBC (A. baumannii A390 [8]) of the same molecule?
Its MBC is 8 mg/L (≈ 19.9 µM).

What about the MBC (A. baumannii A14 [9]) of the same molecule?
The MBC was 16 mg/L (≈ 39.9 µM).

What about the MBC (A. baumannii A473 [10]) of the same molecule?
Its MBC is 8 mg/L (≈ 19.9 µM).

And the MBC (A. baumannii NCTC 13301 [11]; NCTC13301, A. baumannii NCTC 13301, +[…] PB, preliminary MBC, 2nd experiment)?
Its MBC is 8 mg/L (≈ 19.9 µM).

What about the MBC (A. baumannii NCTC 13301 [11]; NCTC13301, read-out: MBC +[…] PB) of the same molecule?
The MBC was 128 mg/L (≈ 319 µM).

And the “MIC without PB/MIC + PB” value (A. baumannii NCTC 13301 [12]; A. baumannii NCTC 13301)?
Its value is 8.

What about the MIC (A. baumannii NCTC 13301 [12]; Acinetobacter baumannii, NCTC13301, A. baumannii NCTC 13301, read-out: MIC) of the same molecule?
Its MIC is 8 mg/L (≈ 19.9 µM).

And the MIC (A. baumannii A14 [13])?
Its MIC is 16 mg/L (≈ 39.9 µM).

And the “MIC without PB/MIC + PB” value (A. baumannii A14 [13])?
The value was 2.

What about the “MIC without PB/MIC + PB” value (A. baumannii A401 [14]) of the same molecule?
The value was 2.

What about the “MIC without PB/MIC + PB” value (A. baumannii A387 [15]; +0.06 μg/ml PB, 2nd experiment) of the same molecule?
Its value is 1.

What about the “MIC without PB/MIC + PB” value (A. baumannii A387 [15]; [20]) of the same molecule?
Its value is 1.

What about the “MIC without PB/MIC + PB” value (A. baumannii A390 [16]; A. baumannii A390) of the same molecule?
Its value is 2.

What about the MIC (A. baumannii A390 [16]; Acinetobacter baumannii, A390, A. baumannii A390, read-out: MIC) of the same molecule?
Its MIC is 8 mg/L (≈ 19.9 µM).

And the MBC (A. baumannii A387 [17])?
The MBC was 8 mg/L (≈ 19.9 µM).

What about the “Range ratios MIC without PB/MIC with PB Oct. 1, 2008 n = 8” value ([18]; 1st experiment) of the same molecule?
The value was 0.5-4.

And the “MIC range with PB (0.25x MIC) Oct. 1, 2008 n = 8” value ([18]; 1st experiment, […] polymyxin B, ATCC 19606, A329, A390 and A473 not taken)?
Its value is 4 to 128 mg/L.

What about the “Range ratios MIC without PB/MIC with PB Oct. 14, 2008 n = 11” value ([18]; 2nd experiment) of the same molecule?
Its value is 1-8.

What about the “MIC range with PB (0.25x MIC) Oct. 14, 2008 n = 11” value ([18]; 2nd experiment, 0.06 μg/ml polymyxin B, all strains except the ATCC strain) of the same molecule?
The value was 4 to 32 mg/L.

And the “MIC without PB/MIC + PB” value (A. baumannii J2; +[…] PB, 2nd experiment)?
The value was 4.

What about the “MIC without PB/MIC + PB” value (A. baumannii J2; ratio, PB […], 1st experiment) of the same molecule?
Its value is 4.

What about the MIC (A. baumannii J2; J2, A. baumannii J2, +[…] PB, 2nd experiment, read-out: MIC) of the same molecule?
The MIC was 8 mg/L (≈ 19.9 µM).

And the MIC (A. baumannii J2; J2, read-out: MIC +[…] PB, A. baumannii J2, +[…] polymyxin B, 1st experiment)?
Its MIC is 8 mg/L (≈ 19.9 µM).

And the “MIC without PB/MIC + PB” value (A. baumannii A473 [19])?
Its value is 1.
